Reference: PubChem BioAssay AID1845195 (Molecular Pharmacology Branch, DTP, NCI, 2023)

Test system: 156681-154-R-J1 tumor spheroid viability
Assay: Anticancer human tumor 156681-154-R-J1 patient-derived melanoma cell line growth inhibition
Conditions: spheroids with HUVEC and MSC; for IC50: curve of first compound; for viability, T/C: stronger effect = lower value
Procedure, shortened: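 Single agents and combinations were tested on spheroids built from tumor cells plus HUVEC and hMSC, at half-log dilutions starting at or near clinical Cmax, else 10 microM; final DMSO 0.25% (v/v).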

[1] = second compound 30 pM, first compound 0.0316 µM
[2] = second compound 30 pM, first compound 0.1 µM
[3] = second compound 30 pM, first compound 0.316 µM
[4] = second compound 30 pM, first compound 1 µM
[5] = second compound 30 pM, first compound 3.16 µM
[6] = second compound 30 pM, first compound 10 µM
[7] = second compound 94.9 pM, first compound 0.0316 µM
[8] = second compound 94.9 pM, first compound 0.1 µM
[9] = second compound 94.9 pM, first compound 0.316 µM
[10] = second compound 94.9 pM, first compound 1 µM
[11] = second compound 94.9 pM, first compound 3.16 µM
[12] = second compound 94.9 pM, first compound 10 µM
[13] = second compound 0.0003 µM, first compound 0.0316 µM
[14] = second compound 0.0003 µM, first compound 0.1 µM
[15] = second compound 0.0003 µM, first compound 0.316 µM
[16] = second compound 0.0003 µM, first compound 1 µM
[17] = second compound 0.0003 µM, first compound 3.16 µM
[18] = second compound 0.0003 µM, first compound 10 µM
[19] = second compound 0.000949 µM, first compound 0.0316 µM
[20] = second compound 0.000949 µM, first compound 0.1 µM
[21] = second compound 0.000949 µM, first compound 0.316 µM
[22] = second compound 0.000949 µM, first compound 1 µM
[23] = second compound 0.000949 µM, first compound 3.16 µM
[24] = second compound 0.000949 µM, first compound 10 µM
[25] = second compound 0.003 µM, first compound 0.0316 µM
[26] = second compound 0.003 µM, first compound 0.1 µM
[27] = second compound 0.003 µM, first compound 0.316 µM
[28] = second compound 0.003 µM, first compound 1 µM
[29] = second compound 0.003 µM, first compound 3.16 µM
[30] = second compound 0.003 µM, first compound 10 µM
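Further: spheroids exposed to compounds for 7 days before readout.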
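Wherever viability, T/C is given: percent of vehicle control viability where 100% = DMSO-treated spheroids.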

Structure (SMILES) | IC50 (second compound 30 pM) | IC50 (second compound 94.9 pM) | IC50 (second compound 0.0003 µM) | IC50 (second compound 0.000949 µM) | IC50 (second compound 0.003 µM) | viability, T/C [1] | viability, T/C [2] | viability, T/C [3] | viability, T/C [4] | viability, T/C [5] | viability, T/C [6] | viability, T/C [7] | viability, T/C [8] | viability, T/C [9] | viability, T/C [10] | viability, T/C [11] | viability, T/C [12] | viability, T/C [13] | viability, T/C [14] | viability, T/C [15] | further results
Cc1cc(C)c(CNC(=O)c2cc(-c3ccc(CN4CCOCC4)cc3)cc3c2cnn3C2CCCC2)c(=O)[nH]1 + COc1cc2c(cc1O)CCNC21CSC2c3c(OC(C)=O)c(C)c4c(c3C(COC1=O)N1C(O)C3Cc5cc(C)c(OC)c(O)c5C(C21)N3C)OCO4 | > 10 µM | > 10 µM | > 10 µM | < 0.0316 µM | < 0.0316 µM | 103% | 106% | 87.3% | 78.7% | 81.5% | 87.8% | 100% | 93.8% | 89% | 77.6% | 86.4% | 78.8% | 76.2% | 74.5% | 76.2% | viability, T/C [16]: 79.6%; viability, T/C [17]: 72.7%; viability, T/C [18]: 66.4%; viability, T/C [19]: 4.8%; viability, T/C [20]: 6.16%; viability, T/C [21]: 5.29%; viability, T/C [22]: 6.16%; viability, T/C [23]: 3.09%; viability, T/C [24]: 1.36%; viability, T/C [25]: 0.35%; viability, T/C [26]: 0.31%; viability, T/C [27]: 0.24%; viability, T/C [28]: 0.18%; viability, T/C [29]: 0.16%; viability, T/C [30]: 0.28%
[2H]c1nc(C)nc([2H])c1-c1cc(NC[C@@H](C)c2cccc3c(C(=O)NC)ccnc23)ncn1 + COc1cc2c(cc1O)CCNC21CSC2c3c(OC(C)=O)c(C)c4c(c3C(COC1=O)N1C(O)C3Cc5cc(C)c(OC)c(O)c5C(C21)N3C)OCO4 | > 10 µM | > 10 µM | > 10 µM | < 0.0316 µM | < 0.0316 µM | 91.3% | 96% | 109% | 95.1% | 92.3% | 94% | 89.6% | 111% | 105% | 85% | 90.4% | 76.8% | 79.7% | 86.6% | 80% | viability, T/C [16]: 75.3%; viability, T/C [17]: 81.9%; viability, T/C [18]: 62.4%; viability, T/C [19]: 6.44%; viability, T/C [20]: 4.98%; viability, T/C [21]: 4.24%; viability, T/C [22]: 4.33%; viability, T/C [23]: 3.62%; viability, T/C [24]: 3.23%; viability, T/C [25]: 0.26%; viability, T/C [26]: 0.3%; viability, T/C [27]: 0.22%; viability, T/C [28]: 0.17%; viability, T/C [29]: 0.17%; viability, T/C [30]: 0.28%
